Experimental data reported in publication PMC3131588, “Effects of Onion (Allium cepa L.) Extract Administration on Intestinal α-Glucosidases Activities and Spikes in Postprandial Blood Glucose Levels in SD Rats Model” (International Journal of Molecular Sciences, 2011).

What was measured:
[1] = biological target: T1, rat intestinal α-glucosidase; experiment: p-nitrophenyl-α-D-glucopyranoside hydrolysis, absorbance at […] nm; format: biochemical; details: 5 mM p-nitrophenyl-α-D-glucopyranoside stock (50 μL), 0.1 M phosphate pH 6.9, 25 °C; crude rat intestinal enzyme; quercetin bought as dihydrate
T1 construct: gene Mgam; native enzymes in crude supernatant of rat intestinal acetone powder (Sigma-Aldrich), EC 3.2.1.20; not resolved to one gene product

[2] = biological target: T2, rat intestinal maltase; experiment: maltose hydrolysis, liberated glucose by glucose oxidase method; format: biochemical; details: maltose 0.4 mg/mL, 0.1 M phosphate pH 7.0, 37 °C, 30 min; crude rat intestinal enzyme; quercetin bought as dihydrate
T2 construct: gene Mgam; native enzymes in crude supernatant of rat intestinal acetone powder (Sigma-Aldrich); maltase activity not resolved to one gene product
Excerpt: maltose hydrolysis, liberated glucose by glucose oxidase method on rat intestinal maltase

O=c1c(O)c(-c2ccc(O)c(O)c2)oc2cc(O)cc(O)c12 [quercetin, 3,3′,4′,5,7-Pentahydroxyflavone dihydrate]
IC50 [1]: 150 µg/mL | IC50 [2]: 70 µg/mL
